This is an account of results in patent publication US12358902B2, “5-(2,5-bis(4-chloro-2-isopropylphenyl)thiophen-3-yl)-1H-tetrazole for the topical treatment of bacterial infections” (DENOVAMED INC., priority 2017, dated 2025).

Each structure is given as a SMILES string. Values after ≈ are worked out from the molar mass of the structure shown.

The MIC is the lowest concentration found to suppress growth.

Format in all cases: cell-based
The subject of assay [1] is S. epidermidis NRS7 vancomycin intermediate. Put plainly: broth microdilution MIC (CLSI). Conditions: Staphylococcus epidermidis, read-out: Antibacterial activity (MIC). How it is done:
(§1) Using a broth microdilution assay according to Clinical Laboratory Standards Institute (CSLI) guidelines, we tested 5-(2,5-bis(4-chloro-2-isopropylphenyl)thiophen-3-yl)-1H-tetrazole (“Test Article” in below table) to establish MICs against a broad range of MDR bacteria and noted substantive activity versus methicillin-resistant Staphylococcus aureus (MRSA), vancomycin-resistant Enterococcus (VRE) and Streptococcus spp. Antimicrobial susceptibility testing was performed by a microdilution broth assay according to CLSI guidelines. The inoculum was prepared from stationary-phase cultures diluted in water. Microtiter plate wells received aliquots of 100 μL of the compound diluted in Mueller-Hinton II cation adjusted media. The final concentration of compound typically ranged from 250 to 0.125 μg/ml in serial two-fold dilutions. In addition to the test compound, growth and sterility controls were included, along with DMSO vehicle control rows. The microtiter plates were inoculated with 5×10^5 bacteria and incubated overnight at 35° C. in a humidified atmosphere.
A general note: Broth dilution looks for growth in wells or tubes with falling amounts of substance.

Assay [2] relates to E. faecalis ATCC51599 vancomycin resistant. The assay is described as follows: broth microdilution MIC (CLSI). As to conditions: Enterococcus faecalis, read-out: Antibacterial activity (MIC). How it is done:
as §1

Assay [3] deals with S. aureus MRSA USA100 epidemic strain. The assay is described as follows: broth microdilution MIC (CLSI). As to conditions: Staphylococcus aureus; S. aureus MRSA USA100 epidemic strain; read-out: Antibacterial activity (MIC). Here is the method: as §1
Assay [4] has as its system S. aureus MRSA clinical isolate ciprofloxacin resistant. The assay is described as follows: broth microdilution MIC (CLSI). Conditions: Staphylococcus aureus; S. aureus MRSA clinical isolate ciprofloxacin resistant; read-out: Antibacterial activity (MIC). How it is done:
as §1

In assay [5] the test system is E. faecium ATCC51299 vancomycin resistant. Put plainly: broth microdilution MIC (CLSI). Conditions: Enterococcus faecium, read-out: Antibacterial activity (MIC). Here is the method: as §1
Assay [6] has as its system S. aureus MRSA clinical isolate multi resistant. The assay is described as follows: broth microdilution MIC (CLSI). As to conditions: Staphylococcus aureus; S. aureus MRSA clinical isolate multi resistant; read-out: Antibacterial activity (MIC). How it is done:
as §1

Assay [7] relates to S. aureus MRSA USA200 epidemic strain. The assay is described as follows: broth microdilution MIC (CLSI). Conditions: Staphylococcus aureus; S. aureus MRSA USA200 epidemic strain; read-out: Antibacterial activity (MIC). Here is the method: as §1
Assay [8] concerns S. aureus MRSA MISA MU50 NRS1. Put plainly: broth microdilution MIC (CLSI). As to conditions: Staphylococcus aureus; S. aureus MRSA MISA MU50 NRS1; read-out: Antibacterial activity (MIC). Here is the method:
as §1

The subject of assay [9] is S. aureus MRSA MISA MU3 NRS2. The assay is described as follows: broth microdilution MIC (CLSI). As to conditions: Staphylococcus aureus; S. aureus MRSA MISA MU3 NRS2; read-out: Antibacterial activity (MIC). Here is the method: as §1
Assay [10] deals with S. aureus MRSA USA300 epidemic strain. Put plainly: broth microdilution MIC (CLSI). As to conditions: Staphylococcus aureus; S. aureus MRSA USA300 epidemic strain; read-out: Antibacterial activity (MIC). Here is the method: as §1
The test system of assay [11] is mupirocin resistant S. aureus strains (MMX 1013, MMX 7779, MMX 7782, MMX 8845, MMX 9202). The assay is described as follows: MIC versus mupirocin resistant S. aureus panel. As to conditions: Staphylococcus aureus; mupirocin resistant S. aureus MMX 1013, MMX 7779, MMX 7782, MMX 8845, MMX 9202. Here is the method: as §1

Take `CC(C)c1cc(Cl)ccc1-c1cc(-c2nnn[nH]2)c(-c2ccc(Cl)cc2C(C)C)s1` [Test Article, 5-(2,5-bis(4-chloro-2-isopropylphenyl)thiophen-3-yl)-1H-tetrazole]: the MIC in assay [1] worked out at 1 µg/mL (≈ 2.19 µM); in assay [2], 0.5 µg/mL (≈ 1.09 µM); in assay [3], 1 µg/mL (≈ 2.19 µM); in assay [4], 1 µg/mL (≈ 2.19 µM); in assay [5] it was 1 µg/mL (≈ 2.19 µM); in assay [6], 0.5 µg/mL (≈ 1.09 µM). The MIC in assay [7] stood at 0.5 µg/mL (≈ 1.09 µM); in assay [8] it was 0.5 µg/mL (≈ 1.09 µM); in assay [9], 1 µg/mL (≈ 2.19 µM); in assay [10] it was 0.5 µg/mL (≈ 1.09 µM); in assay [11], 2 µg/mL (≈ 4.37 µM).
